Test results published in ChEMBL document CHEMBL1201862, “PubChem BioAssay data set” (2004).
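In this assay, cells in 96-well plates receive the compound at five concentrations for 48 hours. Endpoints are linearly interpolated between the surrounding concentrations. GI50: concentration for 50% inhibition of growth.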 The source made the active and inactive calls. Rule as the data show it: active = GI50 up to about 1.1 µM and inactive = higher.

Key:
Assay in all cases: growth of human tumour cells (NCI), 48 h
[1] = system: SNB-19
[2] = system: ACHN
[3] = system: SNB-78
[4] = system: NCI-H226
[5] = system: OVCAR-5
[6] = system: OVCAR-4
[7] = system: HCT-116
[8] = system: EKVX
[9] = system: NCI-H23
[10] = system: HOP-62
[11] = system: NCI-H460
[12] = system: COLO 205
[13] = system: RPMI-8226
[14] = system: SNB-75
[15] = system: TK-10
[16] = system: HT-29
[17] = system: SK-MEL-2
[18] = system: M14
[19] = system: SK-MEL-28
[20] = system: MOLT-4
[21] = system: SK-MEL-5
[22] = system: K562
[23] = system: UO-31
[24] = system: 786-0
[25] = system: HCT-15
[26] = system: A549
[27] = system: LOX IMVI
[28] = system: DMS-114
[29] = system: SR
[30] = system: DMS-273
[31] = system: SF-295
[32] = system: DLD-1
[33] = system: SF-268
[34] = system: NCI-H522
[35] = system: SW-620
[36] = system: CCRF-CEM
[37] = system: HL-60
[38] = system: SN12C
[39] = system: CAKI-1
[40] = system: M19-MEL
[41] = system: OVCAR-8
[42] = system: HCC 2998
[43] = system: OVCAR-3
[44] = system: KM12
[45] = system: XF498
[46] = system: HOP-18
[47] = system: Malme-3M
[48] = system: SF-539
[49] = system: UACC-257
[50] = system: U-251
[51] = system: RXF 393
[52] = system: KM-20L2
[53] = system: UACC-62
[54] = system: IGROV-1
[55] = system: SK-OV-3
[56] = system: HOP-92
[57] = system: LXFL 529

With `Cc1c2[nH]c3ccc(Br)cc3c2c(C)c2nccc(O)c12` the GI50 [1] was 14.5 µM (inactive), the GI50 [2] was 10.1 µM (inactive) and the GI50 [3] was 16.2 µM (inactive). For the same compound, the GI50 [4] was 16.6 µM (inactive), the GI50 [5] was 14.5 µM (inactive) and the GI50 [6] was 16.3 µM (inactive). The GI50 [7] was 13.8 µM (inactive), the GI50 [8] was 16.4 µM (inactive) and the GI50 [9] was 16 µM (inactive). For the same compound, the GI50 [10] was 13.1 µM (inactive), the GI50 [11] was 6.9 µM (inactive) and the GI50 [12] was 12.5 µM (inactive). For the same compound, the GI50 [13] was 14.3 µM (inactive), the GI50 [14] was 25.8 µM (inactive) and the GI50 [15] was 12.8 µM (inactive). The GI50 [16] was 14.4 µM (inactive), the GI50 [17] was 17.5 µM (inactive) and the GI50 [18] was 12.8 µM (inactive). For the same compound, the GI50 [19] was 16.9 µM (inactive), the GI50 [20] was 5.57 µM (inactive) and the GI50 [21] was 22.3 µM (inactive). The GI50 [22] was 17 µM (inactive), the GI50 [23] was 11.1 µM (inactive) and the GI50 [24] was 11.1 µM (inactive). The GI50 [25] was 15.1 µM, the GI50 [26] was 10.2 µM (inactive) and the GI50 [27] was 15.5 µM (inactive). For the same compound, the GI50 [28] was 17.7 µM (inactive), the GI50 [29] was 12.1 µM (inactive) and the GI50 [30] was 12.2 µM (inactive). The GI50 [31] was 14.5 µM (inactive), the GI50 [32] was 27.9 µM (inactive) and the GI50 [33] was 14.8 µM (inactive). For the same compound, the GI50 [34] was 12 µM (inactive), the GI50 [35] was 11.7 µM (inactive) and the GI50 [36] was 7.35 µM (inactive). The GI50 [37] was 12.1 µM (inactive), the GI50 [38] was 13.2 µM (inactive) and the GI50 [39] was 13.8 µM (inactive). For the same compound, the GI50 [40] was 14.6 µM (inactive), the GI50 [41] was 20.7 µM (inactive) and the GI50 [42] was 16.2 µM (inactive). The GI50 [43] was 14.6 µM (inactive), the GI50 [44] was 12.4 µM (inactive) and the GI50 [45] was 16.1 µM (inactive). The GI50 [46] was 10.8 µM (inactive), the GI50 [47] was 13 µM (inactive) and the GI50 [48] was 15.6 µM (inactive). For the same compound, the GI50 [49] was 16.4 µM (inactive).

In the case of `O=[N+]([O-])C1(CO)COC(CCc2ccccc2)OC1` (configuration not stated), the GI50 [2] is reported as > 100 µM (inactive), the GI50 [50] is reported as > 100 µM (inactive) and the GI50 [5] is reported as > 100 µM (inactive). For the same compound, the GI50 [6] was > 100 µM (inactive), the GI50 [7] was > 100 µM (inactive) and the GI50 [8] was > 100 µM (inactive). For the same compound, the GI50 [9] was > 100 µM (inactive), the GI50 [10] was > 100 µM (inactive) and the GI50 [11] was > 100 µM (inactive). The GI50 [14] was > 100 µM (inactive), the GI50 [15] was > 100 µM (inactive) and the GI50 [51] was > 100 µM (inactive). The GI50 [16] was > 100 µM (inactive), the GI50 [17] was > 100 µM (inactive) and the GI50 [18] was > 100 µM (inactive). For the same compound, the GI50 [19] was > 100 µM (inactive), the GI50 [52] was > 100 µM (inactive) and the GI50 [20] was > 100 µM (inactive). For the same compound, the GI50 [21] was > 100 µM (inactive), the GI50 [22] was > 100 µM (inactive) and the GI50 [23] was > 100 µM (inactive). For the same compound, the GI50 [53] was > 100 µM (inactive), the GI50 [24] was > 100 µM (inactive) and the GI50 [25] was > 100 µM. For the same compound, the GI50 [26] was > 100 µM (inactive), the GI50 [27] was > 100 µM (inactive) and the GI50 [29] was > 100 µM (inactive). The GI50 [31] was > 100 µM (inactive), the GI50 [32] was > 100 µM (inactive) and the GI50 [34] was > 100 µM (inactive). For the same compound, the GI50 [54] was > 100 µM (inactive), the GI50 [35] was > 100 µM (inactive) and the GI50 [36] was > 100 µM (inactive). The GI50 [55] was > 100 µM (inactive), the GI50 [56] was 7.13 µM (inactive) and the GI50 [37] was > 100 µM (inactive). For the same compound, the GI50 [38] was > 100 µM (inactive), the GI50 [57] was > 100 µM (inactive) and the GI50 [40] was > 100 µM (inactive). The GI50 [41] was > 100 µM (inactive), the GI50 [42] was > 100 µM (inactive) and the GI50 [43] was > 100 µM (inactive). The GI50 [44] was > 100 µM (inactive), the GI50 [45] was > 100 µM (inactive) and the GI50 [46] was > 100 µM (inactive). For the same compound, the GI50 [47] was > 100 µM (inactive), the GI50 [48] was > 100 µM (inactive) and the GI50 [49] was > 100 µM (inactive).
